{"source": "patent US9096643B2", "about": "“Cell-protective peptides and uses thereof” (priority 2010, dated 2015)", "key": {"[1]": {"system": "Lewis rats", "conditions": "rat, in vivo, sc", "experimental": "Cardiac constructs were made by encapsulation of neonatal Lewis rat cardiomyocytes in Az-chitosan-QHREDGS or Az-chitosan-RGDS. A total of 2×10^6 cardiomyocytes were resuspended in 15 μL of ice cold cardiomyocytes medium with 30% FBS for at least 10 min. These cells were then encapsulated in 100 μL of the hydrogel in transwell plates and constructs (2 mm thick and 6 mm in diameter) were produced. A total of 8 samples were made for each type of hydrogel, and 4 from each group were implanted, while the other 4 were retained as in vitro controls. Samples were cultured at 37° C. for 5 d before they were implanted in vivo.\nCardiac constructs described above were inserted subcutaneously into the abdomen of Lewis rats. Four samples were implanted for each type of hydrogel. […] Quantification of total SMA and Factor VIII was performed using ImageScope v10 (Aperio Technologies) and mean intensities were averaged for six fields for each sample and normalized to total area. […] Apoptosis was assessed using a TUNEL assay (Roche Applied Science) following the manufacturer's standard protocol."}, "[2]": {"system": "neonatal rat CMs (heart cells)", "assay": "Immunostaining for cardiac troponin I on coated surfaces", "format": "cell-based, rat (Sprague-Dawley)", "conditions": "day 8 of cultivation, vs Az-chitosan alone, FIG. 3", "procedure": "The day before cells were ready to be seeded, the surfaces in the 12-well plates were sterilized by germicidal UV illumination overnight. The PBS surrounding the surfaces was then aspirated off and 100,000 live cells were pipetted onto each surface in 100 μL of culture media. These surfaces were left in the incubator for 20 to 30 min to allow the cells to begin to adhere, and then supplemented with 1 mL of warm CM media. The cells were cultivated for 8 days, with 100% culture media change every 2-3 days. The initial seeding density of heart cells on peptide-chitosan coated surfaces was 88 cells/mm^2. […] Each type of surface was created in triplicate.\nThe immunostaining against cardiac troponin I was performed on cells fixed with 4 w/v % paraformaldehyde (PFA, Sigma). The samples were submersed in a blocking solution composed of 10% normal horse serum (NHS, Vector Laboratories) in PBS for 40 min at room temperature. This solution was removed and the sample was submersed in a solution containing primary antibody for 1 hour at 37° C. […] Each sample was made in triplicate and five pictures were taken of each surface to have an adequate representation for quantification. The numbers of nuclei were determined by counting the number of DAPI stained nuclei using the cell counting plugin on ImageJ. The number of CMs was determined by counting the number of successfully stained Troponin I cells."}, "[3]": {"system": "human iPS cells BJ1D", "assay": "iPS colony formation / cloning efficiency after complete dissociation at clonal density", "format": "cell-based", "procedure": "(§1) The human iPS cells (BJ1D and 0901B) were obtained from the Ontario iPSC Facility and used following the hiPS cell research guidelines of the University of Toronto as described by Hotta et al. Nat. Protoc. 4, 1828-1844 (2009)), unless specified otherwise. Cells were cultured on a feeder layer of MEF cells (Mount Sinai Hospital Toronto, inactivated with 10 μg/ml mitomycin C and seeded at 1.8×10^5 per 3.5 cm dish). For single cell cultures, hiPS cell colonies were dissociated in 0.25% Trypsin-EDTA (Invitrogen) for 5 min, followed by trituration with a pipette. To ensure a single-cell suspension, the dissociated cells were passed through a 40 μm cell strainer (BD Falcon) and seeded onto MEF plates at 10 cells/ml, 10 cm plates. Cells were allowed to grow for 7 days and the total number of colonies was counted. In the treated groups, QHREDGS (Biomatik) or DGQESHR (Biomatik) dissolved in PBS (Lonza), were added at the reported concentrations to culture media at the onset of the first treatment passage and replenished with each media change. Media was changed by 100% every day. Peptides and controls were included during dissociation and passaging. Cells were analyzed after 5 passages in continuous treatment with 50 μM QHREDGS, 50 μM DGQESHR, or PBS, unless specified otherwise.\n(§2) iPS cells, BJ1D or 0901B were treated with 50 μM of QHREDGS peptide, or 50 μM DGQESHR scrambled peptide in PBS with a PBS treated control for five passages as a preparation for passage by trypsin. Cells were trypsinized and plated at a clonal density of 10 cells/ml for one week and the number of colonies were counted.\n(§3) After 5 passages in pre-treatment with 50 μM QHREDGS, or controls and complete dissociation (trypsinized), human iPS cells, BJ1D or 0901B cells, were plated on a mouse embryonic fibroblast (MEF) feeder layer at low density (100 cells/plate, 10 cm plate) in maintenance medium containing 50 μM QHREDGS, PBS, or 50 μM DGQESHR scrambled peptide. After one-week in culture, untreated or DGQESHR (scrambled peptide) treated groups generated few colonies, whereas QHREDGS treated groups for both BJ1D or 0901B cells produced many large colonies (˜15 times more than the controls) (see FIG. 13A/B, respectively). The colonies were positive for Oct4, a marker for the undifferentiated state. The cloning efficiency, based on ratio of Oct4+ colonies formed per initially seeded human iPS cells, was 27+/−7.1% and 2.5+/−0.6% for BJ1D and 48+/−9.4% and 22.3+/−1.9 for 0901B in the presence and absence of QHREDGS, respectively. […] Thus, treatment with QHREDGS supports single-cell culture of human iPS cells through the promotion of colony formation."}, "[4]": {"system": "human iPS cells 0901B", "assay": "iPS colony formation / cloning efficiency after complete dissociation at clonal density", "format": "cell-based", "procedure": "as §1, §2, §3"}, "[5]": {"system": "human iPS cells", "assay": "Teratoma formation after grafting into hind-limb muscles of NOD-SCID mice", "format": "in vivo", "conditions": "10 passages in 50 μM, grafted into NOD-SCID mice"}, "[6]": {"system": "human iPS cells BJ1D", "assay": "iPS cell apoptosis, Apo-ONE Caspase 3/7", "format": "cell-based", "conditions": "50 μM, five passages, vs PBS and scrambled peptide, FIG. 12A", "procedure": "(§4) Human iPS cells were treated for 5 passages and levels of apoptosis were measured 3 days after passaging using the Apo-ONE Homogeneous Caspase assay (Promega) according to manufacturers instructions. The levels of Caspase 3/7 activation were proportional to levels of fluorescence. All statistical analyses were performed using the two-tailed student t-test assuming unequal variance. p<0.05 denote statistical significance.\n(§5) IPS cells, BJ1D or 0901B, were treated with 5 μM or 50 μM of QHREDGS peptide, or 50 μM DGQESHR scrambled peptide in PBS with a PBS treated control for five passages and assayed for apoptosis using the APO One Caspase 3/7 system. The levels of Caspase 3/7 activation are proportional to fluorescence. […] Solid bars represent a statistical significance, p<0.05."}, "[7]": {"system": "human iPS cells 0901B", "assay": "iPS cell apoptosis, Apo-ONE Caspase 3/7", "format": "cell-based", "conditions": "50 μM, five passages, vs PBS and scrambled peptide, FIG. 12B", "procedure": "as §4, §5"}, "[8]": {"system": "Rat neonatal cardiomyocytes", "assay": "Doxorubicin induced apoptosis and caspase activation (Western blot)", "format": "cell-based", "conditions": "1 d, doses as low as 5 μM, FIG. 5B,C", "procedure": "Rat neonatal cardiomyocytes were given doxorubicin (Dox) to induce apoptosis and PBS or peptide QHREDGS (1 d), Western blotting was conducted and levels assessed via densitometric analysis (Scion Image software)."}, "[9]": {"conditions": "50 μM, 100 cells/plate on MEF, one week"}, "[10]": {"conditions": "in the presence of 50 μM QHREDGS"}}, "note": "Several values for one entry are separate records, joined by “and”; a condition that tells them apart may be missing. Equal entries are not always repeated. No end group written: not given here.", "data": [{"substance": "Az-chitosan-QHREDGS: QHREDGS peptide covalently conjugated to Az-chitosan by EDC chemistry (also: covalently conjugated to Az-chitosan by EDC chemistry, site not given here)", "values": [{"measurement": "animal health / external signs of inflammation", "setting": "[1]", "result": "no external signs of inflammation"}, {"measurement": "percentage of troponin I positive cells", "setting": "[2]", "result": "increase in the percentage of troponin I positive cells"}]}, {"substance": "QHREDGS (angiopoietin 1 peptide)", "values": [{"measurement": "colonies relative to controls", "setting": "[3]; [9]", "result": "~15 times more than the controls"}, {"measurement": "number of colonies", "setting": "[3]; 50 μM, trypsinized, clonal density, one week, FIG. 13A", "result": "increased significantly"}, {"measurement": "cloning efficiency (Oct4+ colonies per initially seeded cells)", "setting": "[3]; [10]", "result": "27+/−7.1% and 27%"}, {"measurement": "colonies relative to controls", "setting": "[4]; [9]", "result": "~15 times more than the controls"}, {"measurement": "number of colonies", "setting": "[4]; 50 μM, trypsinized, clonal density, one week, FIG. 13B", "result": "increased significantly"}, {"measurement": "cloning efficiency (Oct4+ colonies per initially seeded cells)", "setting": "[4]; [10]", "result": "48+/−9.4% and 48%"}, {"measurement": "teratoma formation", "setting": "[5]", "result": "continued to form teratomas"}, {"measurement": "Caspase 3/7 activity", "setting": "[6]", "result": "significant reduction of Caspase 3/7 activity"}, {"measurement": "Caspase 3/7 activity", "setting": "[7]", "result": "significant reduction of Caspase 3/7 activity"}, {"measurement": "activation of caspases-3 and -6", "setting": "[8]", "result": "blocked"}]}]}
